Results as given in ChEMBL document CHEMBL3414482, “Structure-activity relationship of pyrrolyl diketo acid derivatives as dual inhibitors of HIV-1 integrase and reverse transcriptase ribonuclease H domain” (J Med Chem, 2015).

Molecular target: Human immunodeficiency virus type 1 reverse transcriptase (Human immunodeficiency virus 1, UniProt Q72547)

Compared with `C/C(C(=O)c1cn(Cc2ccc(F)cc2)cc1-c1ccccc1)=C(/O)C(=O)O`, `N/C(=C\C(=O)c1cn(Cc2ccc(F)cc2)cc1-c1ccccc1)C(=O)O` (mixture of isomers) is 32-fold lower in IC50: 64 µM for the first, 2 µM for the second.

`CCOC(=O)/C(O)=C/C(=O)/C=C/c1cc(C(=O)c2ccc(F)cc2)cn1C` and `Cn1cc(C(=O)c2ccc(F)cc2)cc1/C=C/C(=O)/C=C(\O)C(=O)O` are within 1.5-fold of each other in IC50: 28 µM for the first, 20 µM for the second.

Compared with `CCOC(=O)/C(N)=C/C(=O)c1cn(Cc2ccc(F)cc2)cc1-c1ccccc1`, `CCOC(=O)/C(O)=C/C(=O)/C=C/c1cn(Cc2ccc(F)cc2)cc1-c1ccccc1` is 24-fold lower in IC50: 72 µM for the first, 3 µM for the second. The second is the more potent here.

With `O=C(/C=C(\O)C(=O)O)/C=C/c1cc(C(=O)c2ccc(F)cc2)cn1Cc1ccccc1` the IC50 was 7.5 µM.
